One test concerns Pythium ultimum. As to the kind of experiment: Pythium ultimum / liquid culture (seedling damping off). Type of test: cell-based. The settings on record: Globisporangium ultimum, read-out: control of Pythium ultimum.
The next test relates to Plasmopara viticola. As to the kind of experiment: Plasmopara viticola / grape / leaf disc preventative. The format is in vivo. Particulars: 200 ppm, grape vine leaf disks, inoculated 1 day after application, 6-8 days after application, compared to untreated control.
Another test concerns Phytophthora infestans. The format is in vivo. The settings on record: 200 ppm; tomato leaf disks, preventative, inoculated 1 day after application; 5-7 days after application; compared to untreated control.

This is an account of results in US20260293898A1 (priority 2023, published 2026).

Each structure is given as a SMILES string.

Regarding `COC(=O)Nc1ccc(-c2cnc3ccc(C(=O)N(C)c4ccc(C#N)c(OC)c4)cn23)cn1` [X.10, methyl N-[5-[6-[(4-cyano-3-methoxy-phenyl)-methyl-carbamoyl]imidazo[1,2-a]pyridin-3-yl]-2-pyridyl]carbamate], the inhibition of growth at 20 ppm with Pythium ultimum was not below 80%. The “control of Plasmopara viticola” value in the test with Plasmopara viticola was “at least 80%”.
Regarding `COC(=O)Nc1ccc(-c2cnc3ccc(C(=O)N(C)c4ccc(Cl)c(OC)c4)cn23)cn1` [X.11, methyl N-[5-[6-[(4-chloro-3-methoxy-phenyl)-methyl-carbamoyl]imidazo[1,2-a]pyridin-3-yl]-2-pyridyl]carbamate], the inhibition of growth at 20 ppm in the test on Pythium ultimum was not below 80%. The “control of Plasmopara viticola” value in the test with Plasmopara viticola is on record as “at least 80%”.
In the case of `CONC(=O)Nc1ccc(-c2cnc3ccc(C(=O)N(C)c4ccc(F)c(OC)c4)cn23)cn1` [X.17], in the test with Pythium ultimum, the inhibition of growth at 20 ppm is not below 80%.
Take `COC(=O)Nc1ccc(-c2cnc3ccc(C(=O)N(C)c4ccc(F)c(C)c4)cn23)cn1` [X.09, methyl N-[5-[6-[(4-fluoro-3-methyl-phenyl)-methyl-carbamoyl]imidazo[1,2-a]pyridin-3-yl]-2-pyridyl]carbamate]: the inhibition of growth at 20 ppm in the test with Pythium ultimum was not below 80%. In the test on Plasmopara viticola, the “control of Plasmopara viticola” value is given as “at least 80%”.
The matching figures for `COC(=O)Nc1ccc(-c2cnc3c(C)cc(C(=O)N(C)c4ccc(Cl)cc4)cn23)cc1` [X.08, methyl N-[4-[6-[(4-chlorophenyl)-methyl-carbamoyl]-8-methyl-imidazo[1,2-a]pyridin-3-yl]phenyl]carbamate]: not below 80% and “at least 80%”.
`COCN(C(=O)c1ccc2ncc(-c3ccc(NC(=O)OC)nc3)n2c1)c1ccc(F)c(OC)c1` [X.04, methyl N-[5-[6-[(4-fluoro-3-methoxy-phenyl)-(methoxymethyl)carbamoyl]imidazo[1,2-a]pyridin-3-yl]-2-pyridyl]carbamate]: the inhibition of growth at 20 ppm with Pythium ultimum was not below 80%. The “control of Plasmopara viticola” value in the test on Plasmopara viticola was “at least 80%”.
With `COc1cc(N(C)C(=O)c2ccc3ncc(-c4ccc(NC(=O)C5CC5)nc4)n3c2)ccc1F` [X.06, 3-[6-(cyclopropanecarbonylamino)-3-pyridyl]-N-(4-fluoro-3-methoxy-phenyl)-N-methyl-imidazo[1,2-a]pyridine-6-carboxamide], the “control of Phytophthora infestans” value in the test on Phytophthora infestans is listed as “at least 80%”. Besides, the inhibition of growth at 20 ppm in the test on Pythium ultimum is not below 80%. Besides, in the test with Plasmopara viticola, the “control of Plasmopara viticola” value is “at least 80%”.
Regarding `COC(=O)Nc1ccc(-c2cnc3c(C)cc(C(=O)N(C)c4ccc(F)cc4)cn23)cn1` [X.12, methyl N-[5-[6-[(4-fluorophenyl)-methyl-carbamoyl]-8-methyl-imidazo[1,2-a]pyridin-3-yl]-2-pyridyl]carbamate], the inhibition of growth at 20 ppm in the test with Pythium ultimum was not below 80%. The “control of Plasmopara viticola” value in the test with Plasmopara viticola is on record as “at least 80%”.
The like results for `COC(=O)Nc1ccc(-c2cnc3ccc(C(=O)N(CC#N)c4ccc(Cl)c(OC)c4)cn23)cn1` [X.15, methyl N-[5-[6-[(4-chloro-3-methoxy-phenyl)-(cyanomethyl)carbamoyl]imidazo[1,2-a]pyridin-3-yl]-2-pyridyl]carbamate] were, in that order, not below 80% and “at least 80%”.
Regarding `COC(=O)Nc1ccc(-c2cnc3c(C)cc(C(=O)N(C)c4ccc(C#N)c(OC)c4)cn23)cn1` [X.23, methyl N-[5-[6-[(4-cyano-3-methoxy-phenyl)-methyl-carbamoyl]-8-methyl-imidazo[1,2-a]pyridin-3-yl]-2-pyridyl]carbamate], the “control of Phytophthora infestans” value with Phytophthora infestans is on record as “at least 80%”. In addition, the inhibition of growth at 20 ppm in the test on Pythium ultimum is not below 80%. Moreover, in the test with Plasmopara viticola, the “control of Plasmopara viticola” value was “at least 80%”.
For the molecule `COCN(C(=O)c1cc(C)c2ncc(-c3ccc(NC(=O)OC)nc3)n2c1)c1ccc(F)c(OC)c1` [X.03, methyl N-[5-[6-[(4-fluoro-3-methoxy-phenyl)-(methoxymethyl)carbamoyl]-8-methyl-imidazo[1,2-a]pyridin-3-yl]-2-pyridyl]carbamate], the inhibition of growth at 20 ppm in the test with Pythium ultimum was not below 80%. Moreover, the “control of Plasmopara viticola” value in the test with Plasmopara viticola is given as “at least 80%”.
Regarding `COC(=O)Nc1ccc(-c2cnc3c(C)cc(C(=O)N(C)c4ccnc(OC)c4)cn23)cn1` [X.22, methyl N-[5-[6-[(2-methoxy-4-pyridyl)-methyl-carbamoyl]-8-methyl-imidazo[1,2-a]pyridin-3-yl]-2-pyridyl]carbamate], the “control of Phytophthora infestans” value in the test on Phytophthora infestans is “at least 80%”. The inhibition of growth at 20 ppm in the test with Pythium ultimum was not below 80%. Also, the “control of Plasmopara viticola” value in the test on Plasmopara viticola was “at least 80%”.
`CCN(C(=O)c1ccc2ncc(-c3ccc(NC(=O)OC)nc3)n2c1)c1ccc(F)cc1` [X.19, methyl N-[5-[6-[ethyl-(4-fluorophenyl)carbamoyl]imidazo[1,2-a]pyridin-3-yl]-2-pyridyl]carbamate]: the inhibition of growth at 20 ppm in the test on Pythium ultimum is not below 80%. Moreover, in the test with Plasmopara viticola, the “control of Plasmopara viticola” value is listed as “at least 80%”.
Turning to `COC(=O)Nc1ccc(-c2cnc3c(NC(C)=O)cc(C(=O)N(C)c4ccc(F)c(OC)c4)cn23)cn1` [X.20, methyl N-[5-[8-acetamido-6-[(4-fluoro-3-methoxy-phenyl)-methyl-carbamoyl]imidazo[1,2-a]pyridin-3-yl]-2-pyridyl]carbamate], the inhibition of growth at 20 ppm in the test with Pythium ultimum is not below 80%. The “control of Plasmopara viticola” value with Plasmopara viticola is reported as “at least 80%”.
For the molecule `COC(=O)Nc1ccc(-c2cnc3ccc(C(=O)N(CS(C)(=O)=O)c4ccc(F)c(OC)c4)cn23)cn1` [X.16, methyl N-[5-[6-[(4-fluoro-3-methoxy-phenyl)-(methylsulfonylmethyl)carbamoyl]imidazo[1,2-a]pyridin-3-yl]-2-pyridyl]carbamate], the inhibition of growth at 20 ppm in the test on Pythium ultimum is not below 80%.
Regarding `COC(=O)Nc1ccc(-c2cnc3ccc(C(=O)N(C)c4ccc(F)cc4)cn23)cc1` [X.07, methyl N-[4-[6-[(4-fluorophenyl)-methyl-carbamoyl]imidazo[1,2-a]pyridin-3-yl]phenyl]carbamate], the inhibition of growth at 20 ppm with Pythium ultimum was not below 80%. In the test with Plasmopara viticola, the “control of Plasmopara viticola” value is “at least 80%”.
`COC(=O)Nc1ccc(-c2cnc3cc(C)c(C(=O)N(C)c4ccc(F)cc4)cn23)cn1` [X.13, methyl N-[5-[6-[(4-fluorophenyl)-methyl-carbamoyl]-7-methyl-imidazo[1,2-a]pyridin-3-yl]-2-pyridyl]carbamate]: in the test with Pythium ultimum, the inhibition of growth at 20 ppm was not below 80%. Besides, the “control of Plasmopara viticola” value in the test on Plasmopara viticola was “at least 80%”.
With `COC(=O)Nc1ccc(-c2cnc3ccc(C(=O)N(C)c4ccc(F)c(OC)c4)cn23)cn1` [X.01, methyl N-[5-[6-[(4-fluoro-3-methoxy-phenyl)-methyl-carbamoyl]imidazo[1,2-a]pyridin-3-yl]-2-pyridyl]carbamate], in the test with Pythium ultimum, the inhibition of growth at 20 ppm was not below 80%. For the same molecule, the “control of Plasmopara viticola” value in the test with Plasmopara viticola is listed as “at least 80%”.
The matching figures for `COC(=O)Nc1ccc(-c2cnc3ccc(C(=O)N(CC#N)c4ccc(F)c(OC)c4)cn23)cn1` [X.14, methyl N-[5-[6-[cyanomethyl-(4-fluoro-3-methoxy-phenyl)carbamoyl]imidazo[1,2-a]pyridin-3-yl]-2-pyridyl]carbamate]: not below 80% and “at least 80%”.
For the molecule `COC(=O)Nc1ccc(-c2cnc3c(NC(C)=O)cc(C(=O)N(C)c4ccc(F)cc4)cn23)cn1` [X.18, methyl N-[5-[8-acetamido-6-[(4-fluorophenyl)-methyl-carbamoyl]imidazo[1,2-a]pyridin-3-yl]-2-pyridyl]carbamate], the inhibition of growth at 20 ppm in the test with Pythium ultimum is not below 80%. Further, the “control of Plasmopara viticola” value in the test with Plasmopara viticola is “at least 80%”.
As to `COC(=O)Nc1ccc(-c2cnc3ccc(C(=O)N(C)c4ccc(F)c(OC)c4)cn23)cc1` [X.05, methyl N-[4-[6-[(4-fluoro-3-methoxy-phenyl)-methyl-carbamoyl]imidazo[1,2-a]pyridin-3-yl]phenyl]carbamate], the inhibition of growth at 20 ppm in the test with Pythium ultimum was not below 80%. Besides, in the test with Plasmopara viticola, the “control of Plasmopara viticola” value is “at least 80%”.
With `COCc1cc(C(=O)N(C)c2ccc(F)c(OC)c2)cn2c(-c3ccc(NC(=O)OC)nc3)cnc12` [X.21, methyl N-[5-[6-[(4-fluoro-3-methoxy-phenyl)-methyl-carbamoyl]-8-(methoxymethyl)imidazo[1,2-a]pyridin-3-yl]-2-pyridyl]carbamate], the “control of Phytophthora infestans” value in the test on Phytophthora infestans is “at least 80%”. Moreover, the inhibition of growth at 20 ppm in the test on Pythium ultimum is not below 80%. The “control of Plasmopara viticola” value in the test on Plasmopara viticola is on record as “at least 80%”.
Turning to `COC(=O)Nc1ccc(-c2cnc3c(C)cc(C(=O)N(C)c4ccc(F)c(OC)c4)cn23)cn1` [X.02, methyl N-[5-[6-[(4-fluoro-3-methoxy-phenyl)-methyl-carbamoyl]-8-methyl-imidazo[1,2-a]pyridin-3-yl]-2-pyridyl]carbamate], the inhibition of growth at 20 ppm in the test on Pythium ultimum is not below 80%. Besides, the “control of Plasmopara viticola” value in the test with Plasmopara viticola was “at least 80%”.
